Measured values taken from patent US8217164B2, “Use of a lactose-derived C-glycoside compound as an agent for activating and regulating cutaneous immunity” (L'Oreal, priority 2006, dated 2012).

Test system: human peripheral blood cells (lymphocyte proliferation)
Experiment: Immunostimulant activity: lymphocyte proliferation by BrdU labelling
Format: cell-based
Conditions: 10 to 0.05 mM, 3 days of culture
Description: The immunostimulant activity is tested in the following way: human peripheral blood cells are cultured in the presence of an RPMI-type culture medium supplemented with L-glutamine (2 mM), penicillin/streptomycin (50 μg/50 IU/ml) and foetal calf serum (10%). The C-glycoside derivatives are added at various concentrations (10 to 0.05 mM), as is phytohaemagglutinin (PHA at 5*G/ml), a positive control for lymphocyte proliferation.

**Q.** How did the “human lymphocyte proliferation (immunostimulant activity)” value turn out when CC(=O)C[C@@H]1O[C@H](CO)[C@@H](OC2O[C@H](CO)[C@H](O)[C@H](O)[C@H]2O)[C@H](O)[C@H]1O (stereo partly shown) [Compound 2] was run?
**A.** tendency to stimulate human lymphocyte proliferation at all the concentrations tested
